Columns and labels:
Sphingosine kinase 1 [1] = target: T1, Sphingosine kinase 1 (Homo sapiens, UniProt Q9NYA1)
Description: Inhibition of purified human SphK1 assessed as inhibition of formation of [33P]-S1P after 50 mins by scintillation counting

Sphingosine kinase 2 [2] = target: T2, Sphingosine kinase 2 (Homo sapiens, UniProt Q9NRA0)
T2 sequence (Q9NRA0 whole entry): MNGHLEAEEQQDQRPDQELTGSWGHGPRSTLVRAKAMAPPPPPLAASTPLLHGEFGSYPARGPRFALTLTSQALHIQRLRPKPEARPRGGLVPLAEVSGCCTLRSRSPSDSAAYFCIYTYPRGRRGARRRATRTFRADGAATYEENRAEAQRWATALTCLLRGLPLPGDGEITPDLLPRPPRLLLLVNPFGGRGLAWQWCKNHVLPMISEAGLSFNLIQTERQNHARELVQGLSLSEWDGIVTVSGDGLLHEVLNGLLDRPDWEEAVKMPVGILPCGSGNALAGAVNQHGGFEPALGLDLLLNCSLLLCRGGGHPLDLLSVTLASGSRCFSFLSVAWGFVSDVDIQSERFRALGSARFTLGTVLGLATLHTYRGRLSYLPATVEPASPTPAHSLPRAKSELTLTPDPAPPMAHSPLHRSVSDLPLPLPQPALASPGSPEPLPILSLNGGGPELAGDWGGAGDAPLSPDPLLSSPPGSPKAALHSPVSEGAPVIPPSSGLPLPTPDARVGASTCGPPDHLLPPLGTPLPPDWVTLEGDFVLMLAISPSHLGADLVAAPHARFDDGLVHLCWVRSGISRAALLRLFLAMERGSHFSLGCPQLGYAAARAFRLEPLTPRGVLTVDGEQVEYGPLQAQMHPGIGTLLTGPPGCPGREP
Description: Inhibition of purified human SphK2 assessed as inhibition of formation of [33P]-S1P after 50 mins by scintillation counting

Sphingosine kinase 1 [3] = target: T1, Sphingosine kinase 1; remark: listed apart in the source
Description: Inhibition of SphK1 in human WM266-4 cells assessed as inhibition of formation of [17C]-S1P formation after 20 mins by LC-MS analysis

[4] = Fraction unbound in human plasma by ultra-centrifugation method; assay type: ADME, cell-free
Sphingosine kinase 2 [5] = target: T3, Sphingosine kinase 2 (Mus musculus, UniProt Q9JIA7); assay: Inhibition of mouse SphK2
T3 sequence (Q9JIA7 whole entry): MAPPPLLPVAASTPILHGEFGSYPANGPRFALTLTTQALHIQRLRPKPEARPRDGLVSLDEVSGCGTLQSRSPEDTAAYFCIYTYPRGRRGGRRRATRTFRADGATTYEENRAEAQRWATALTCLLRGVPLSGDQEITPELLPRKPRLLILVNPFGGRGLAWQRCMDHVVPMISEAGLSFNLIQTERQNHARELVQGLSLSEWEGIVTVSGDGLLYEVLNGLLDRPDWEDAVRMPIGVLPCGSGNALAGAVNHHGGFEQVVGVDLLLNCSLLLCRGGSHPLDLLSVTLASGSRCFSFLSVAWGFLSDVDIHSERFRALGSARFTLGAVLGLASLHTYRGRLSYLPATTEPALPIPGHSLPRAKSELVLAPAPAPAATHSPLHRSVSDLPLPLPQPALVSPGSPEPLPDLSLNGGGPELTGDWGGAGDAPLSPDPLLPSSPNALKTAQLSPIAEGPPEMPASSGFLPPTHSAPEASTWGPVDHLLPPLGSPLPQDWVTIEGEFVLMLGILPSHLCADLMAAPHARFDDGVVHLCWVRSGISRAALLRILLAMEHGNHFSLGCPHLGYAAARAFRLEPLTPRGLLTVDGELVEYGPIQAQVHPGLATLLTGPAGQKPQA

Sphingosine kinase 1 [6] = target: Sphingosine kinase 1 (Mus musculus, UniProt Q8CI15); assay: Inhibition of mouse SphK1
Sequence of Sphingosine kinase 1 (Mus musculus, UniProt Q8CI15) (Q8CI15 whole entry): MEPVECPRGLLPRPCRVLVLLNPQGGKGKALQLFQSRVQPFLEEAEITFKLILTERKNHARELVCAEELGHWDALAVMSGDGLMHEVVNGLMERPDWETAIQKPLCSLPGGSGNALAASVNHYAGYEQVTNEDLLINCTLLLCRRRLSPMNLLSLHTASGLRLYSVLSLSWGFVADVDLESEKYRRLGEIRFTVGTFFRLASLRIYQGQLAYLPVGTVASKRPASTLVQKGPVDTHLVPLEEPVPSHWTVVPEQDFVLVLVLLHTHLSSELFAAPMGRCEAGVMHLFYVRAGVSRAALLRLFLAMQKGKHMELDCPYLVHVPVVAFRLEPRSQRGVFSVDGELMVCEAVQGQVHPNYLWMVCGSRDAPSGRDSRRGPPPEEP

[7] = Mean residence time in rat at 0.5 mg/kg, iv; assay type: ADME, organism-based; design: dose 0.5 mg/kg, route intravenous; conditions: in vivo
[8] = Fraction unbound in rat plasma by ultra-centrifugation method; assay type: ADME, cell-free
[9] = Clearance in rat at 0.5 mg/kg, iv; assay type: ADME, organism-based; design: dose 0.5 mg/kg, route intravenous; conditions: in vivo
[10] = Volume of distribution at steady state in rat at 0.5 mg/kg, iv; assay type: ADME, organism-based; design: dose 0.5 mg/kg, route intravenous; conditions: in vivo, read-out: Vdss
[11] = Mean residence time in mouse at 5 mg/kg, po; assay type: ADME, organism-based; design: dose 5 mg/kg, route oral; conditions: in vivo
[12] = Oral bioavailability in mouse at 5 mg/kg; assay type: ADME, organism-based; conditions: in vivo
[13] = Clearance in mouse at 5 mg/kg, po; assay type: ADME, organism-based; design: dose 5 mg/kg, route oral; conditions: in vivo

T1 sequence (Q9NYA1 whole entry): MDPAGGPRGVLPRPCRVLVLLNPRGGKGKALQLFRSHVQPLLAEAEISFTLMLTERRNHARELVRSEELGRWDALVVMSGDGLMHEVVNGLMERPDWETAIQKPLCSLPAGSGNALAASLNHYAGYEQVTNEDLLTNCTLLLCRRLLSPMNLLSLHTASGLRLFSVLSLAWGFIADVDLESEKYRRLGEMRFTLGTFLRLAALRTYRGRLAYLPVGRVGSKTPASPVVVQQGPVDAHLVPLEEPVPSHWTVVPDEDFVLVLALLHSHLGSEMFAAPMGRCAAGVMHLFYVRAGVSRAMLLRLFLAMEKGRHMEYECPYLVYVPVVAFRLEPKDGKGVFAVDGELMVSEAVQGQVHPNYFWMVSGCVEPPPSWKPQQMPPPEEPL

## CCCCCCCCCCCCc1ccc(C(=O)NC2(C(=N)N)CC2)cc1
Sphingosine kinase 1 [1]
  Ki: 200 nM
Sphingosine kinase 2 [2]
  Ki: 500 nM

## N=C(N)[C@@H]1CCCN1C(=O)c1ccc(-c2nc(-c3cccc(CCC4CCCCC4)c3)co2)cc1
Sphingosine kinase 1 [1]
  Ki: 50 nM
Sphingosine kinase 2 [2]
  Ki: 4200 nM

## OC[C@@H]1CCCN1CCc1ccc(Nc2nc(-c3ccc4ccccc4c3)cs2)cc1
Sphingosine kinase 1 [1]
  IC50: 990 nM
Sphingosine kinase 2 [2]
  IC50: 2500 nM

## OCC1CCN1CCc1ccc(Nc2nc(-c3ccc4ccccc4c3)cs2)cc1 (configuration not stated)
Sphingosine kinase 2 [2]
  IC50: 2500 nM

## OC[C@H]1CCCN1CCc1ccc(Nc2nc(-c3ccc4ccccc4c3)cs2)cc1
Sphingosine kinase 1 [1]
  IC50: 580 nM
Sphingosine kinase 2 [2]
  IC50: 2700 nM

## COC[C@H]1CCCN1CCc1ccc(Nc2nc(-c3ccc4ccccc4c3)cs2)cc1
Sphingosine kinase 2 [2]
  IC50: 5700 nM

## CCCCc1ccc(/C=C/[C@H](O)[C@@H](CO)NC)cc1
Sphingosine kinase 1 [1]
  Ki: 10000 nM
Sphingosine kinase 2 [2]
  Ki: > 100000 nM

## OC[C@H]1C[C@@H](O)CCN1CCc1ccc(Nc2nc(C3CCCC3)cs2)cc1
Sphingosine kinase 1 [1]
  IC50: 130 nM
Sphingosine kinase 1 [3]
  EC50: 850 nM
Sphingosine kinase 2 [2]
  IC50: > 5000 nM

## OC[C@H]1C[C@@H](O)CCN1CCc1ccc(Nc2nc(-c3ccc(Cl)cc3Cl)cs2)cc1
[4]
  fraction unbound: 0.02
Sphingosine kinase 2 [5]
  IC50: > 10000 nM
Sphingosine kinase 1 [6]
  IC50: 20 nM
[7]
  MRT: 14 h
[8]
  fraction unbound: 0.01
[9]
  clearance: 21.7 mL/min/kg
[10]
  Vd: 18 L/kg

## OC[C@H]1C[C@@H](O)CCN1CCc1ccc(Nc2nc(-c3cccc(C(F)(F)F)c3F)cs2)cc1
Sphingosine kinase 1 [1]
  IC50: 5 nM
Sphingosine kinase 1 [3]
  EC50: 250 nM

## OCC1CCCCN1CCc1ccc(Nc2nc(-c3ccc4ccccc4c3)cs2)cc1 (configuration not stated)
Sphingosine kinase 1 [1]
  IC50: 140 nM

## OCC1CCCCCN1CCc1ccc(Nc2nc(-c3ccc4ccccc4c3)cs2)cc1 (configuration not stated)
Sphingosine kinase 2 [2]
  IC50: > 10000 nM

## OCCC1CCCCN1CCc1ccc(Nc2nc(-c3ccc4ccccc4c3)cs2)cc1 (configuration not stated)
Sphingosine kinase 1 [1]
  IC50: > 10000 nM
Sphingosine kinase 2 [2]
  IC50: > 10000 nM

## CN1CCN(CCc2ccc(Nc3nc(-c4ccc5ccccc5c4)cs3)cc2)C(CO)C1 (configuration not stated)
Sphingosine kinase 2 [2]
  IC50: 1700 nM

## OCC1COCCN1CCc1ccc(Nc2nc(-c3ccc4ccccc4c3)cs2)cc1 (configuration not stated)
Sphingosine kinase 2 [2]
  IC50: > 10000 nM

## O=S1(=O)CCN(CCc2ccc(Nc3nc(-c4ccc(Cl)c(Cl)c4)cs3)cc2)C(CO)C1 (configuration not stated)
Sphingosine kinase 2 [2]
  IC50: 3000 nM

## OC[C@H]1CCCCN1CCc1ccc(Nc2nc(-c3ccc4ccccc4c3)cs2)cc1
Sphingosine kinase 1 [1]
  IC50: 80 nM

## OC[C@@H]1CCCCN1CCc1ccc(Nc2nc(-c3ccc4ccccc4c3)cs2)cc1
Sphingosine kinase 1 [1]
  IC50: 1100 nM

## OC[C@H]1C[C@@H](O)CCN1CCCc1ccc(Nc2nc(-c3ccc(Cl)c(Cl)c3)cs2)cc1
Sphingosine kinase 1 [1]
  IC50: 2500 nM
Sphingosine kinase 2 [2]
  IC50: > 10000 nM

## OC[C@H]1C[C@@H](O)CN1CCc1ccc(Nc2nc(-c3ccc(Cl)c(Cl)c3)cs2)cc1
Sphingosine kinase 2 [2]
  IC50: 90 nM
[9]
  clearance: > 233 mL/min/kg
[10]
  Vd: > 100 L/kg

## OC[C@H]1C[C@@H](O)CN1CCCc1ccc(Nc2nc(-c3ccc(Cl)c(Cl)c3)cs2)cc1
Sphingosine kinase 1 [1]
  IC50: 30 nM
Sphingosine kinase 2 [2]
  IC50: 270 nM
[9]
  clearance: > 233 mL/min/kg
[10]
  Vd: > 100 L/kg

## OC[C@H]1C[C@H](O)CN1CCc1ccc(Nc2nc(-c3ccc(Cl)c(Cl)c3)cs2)cc1
Sphingosine kinase 2 [2]
  IC50: 250 nM
[9]
  clearance: > 233 mL/min/kg
[10]
  Vd: > 100 L/kg

## OC[C@H]1C[C@H](O)CN1CCCc1ccc(Nc2nc(-c3ccc(Cl)c(Cl)c3)cs2)cc1
Sphingosine kinase 1 [1]
  IC50: 30 nM
Sphingosine kinase 2 [2]
  IC50: 90 nM
[9]
  clearance: > 233 mL/min/kg
[10]
  Vd: > 100 L/kg

## OC[C@H]1CCCCN1CCc1ccc(Nc2nc(-c3cccc(Cl)c3)cs2)cc1
Sphingosine kinase 1 [1]
  IC50: 270 nM

## OC[C@H]1CCCCN1CCc1ccc(Nc2nc(-c3ccc(Cl)cc3)cs2)cc1
Sphingosine kinase 1 [1]
  IC50: 80 nM

## N#Cc1ccc(-c2csc(Nc3ccc(CCN4CCCC[C@@H]4CO)cc3)n2)cc1
Sphingosine kinase 1 [1]
  IC50: > 10000 nM

## OC[C@H]1C[C@@H](O)CCN1CCc1ccc(Nc2nc(-c3ccccc3)cs2)cc1
Sphingosine kinase 1 [1]
  IC50: 70 nM
Sphingosine kinase 1 [3]
  EC50: 310 nM

## OC[C@H]1C[C@@H](O)CCN1CCc1ccc(Nc2nc(-c3cccc(F)c3)cs2)cc1
Sphingosine kinase 2 [2]
  IC50: > 5000 nM

## OC[C@H]1C[C@@H](O)CCN1CCc1ccc(Nc2nc(-c3ccc(Cl)cc3)cs2)cc1
Sphingosine kinase 1 [1]
  IC50: 8 nM
Sphingosine kinase 1 [3]
  EC50: 130 nM

## Cc1ccc(-c2csc(Nc3ccc(CCN4CC[C@H](O)C[C@@H]4CO)cc3)n2)cc1
Sphingosine kinase 1 [1]
  IC50: 7 nM

## OC[C@H]1C[C@@H](O)CCN1CCc1ccc(Nc2nc(-c3ccc(C(F)(F)F)cc3)cs2)cc1
[4]
  fraction unbound: 0.04
[11]
  MRT: 13 h
Sphingosine kinase 1 [6]
  IC50: 70 nM
[12]
  bioavailability: 32%
[7]
  MRT: 12 h
[8]
  fraction unbound: 0.03
[9]
  clearance: 23.3 mL/min/kg
[10]
  Vd: 17 L/kg
[13]
  CL/F: 11.7 mL/min/kg

## CCCCc1csc(Nc2ccc(CCN3CC[C@H](O)C[C@@H]3CO)cc2)n1
Sphingosine kinase 1 [1]
  IC50: 70 nM
Sphingosine kinase 1 [3]
  EC50: 370 nM
Sphingosine kinase 2 [2]
  IC50: > 5000 nM

## CC(C)(C)c1csc(Nc2ccc(CCN3CC[C@H](O)C[C@@H]3CO)cc2)n1
Sphingosine kinase 1 [1]
  IC50: > 5000 nM
Sphingosine kinase 2 [2]
  IC50: > 10000 nM
